Laboratory results: PubChem BioAssay (NCI)
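The compound was tested at five concentrations on cells cultured in 96-well plates, with a 48-hour exposure period. GI50 = concentration required for 50% inhibition of growth. TGI denotes the concentration required for complete inhibition of growth.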

Tests used:
Assay in all cases: NCI-60 cell line screen, 48 h
MALME-3M melanoma = test system: MALME-3M melanoma
SNB-19 CNS = test system: SNB-19 CNS
LOX IMVI melanoma = test system: LOX IMVI melanoma
CCRF-CEM leukemia = test system: CCRF-CEM leukemia
HOP-92 NSCLC = test system: HOP-92 NSCLC
K-562 leukemia = test system: K-562 leukemia
T-47D breast = test system: T-47D breast
TK-10 renal = test system: TK-10 renal
SK-MEL-28 melanoma = test system: SK-MEL-28 melanoma
COLO 205 colon = test system: COLO 205 colon
A549 NSCLC = test system: A549 NSCLC
BT-549 breast = test system: BT-549 breast
HS 578T breast = test system: HS 578T breast
SR leukemia = test system: SR leukemia
IGROV1 ovarian = test system: IGROV1 ovarian
HCT-15 colon = test system: HCT-15 colon
OVCAR-3 ovarian = test system: OVCAR-3 ovarian
SF-295 CNS = test system: SF-295 CNS
NCI/ADR-RES ovarian = test system: NCI/ADR-RES ovarian
MCF7 breast = test system: MCF7 breast
ACHN renal = test system: ACHN renal
U251 CNS = test system: U251 CNS
EKVX NSCLC = test system: EKVX NSCLC
SF-539 CNS = test system: SF-539 CNS
HOP-62 NSCLC = test system: HOP-62 NSCLC
PC-3 prostate = test system: PC-3 prostate
SN12C renal = test system: SN12C renal
SF-268 CNS = test system: SF-268 CNS
NCI-H226 lung = test system: NCI-H226 lung
HCC-2998 colon = test system: HCC-2998 colon
NCI-H23 lung = test system: NCI-H23 lung
UO-31 renal = test system: UO-31 renal
UACC-62 melanoma = test system: UACC-62 melanoma
HCT-116 colon = test system: HCT-116 colon
SW-620 colon = test system: SW-620 colon
MDA-MB-231 breast = test system: MDA-MB-231 breast
MDA-MB-435 = test system: MDA-MB-435
786-0 renal = test system: 786-0 renal
KM12 colon = test system: KM12 colon
NCI-H522 lung = test system: NCI-H522 lung
SK-MEL-2 melanoma = test system: SK-MEL-2 melanoma
OVCAR-8 ovarian = test system: OVCAR-8 ovarian
UACC-257 melanoma = test system: UACC-257 melanoma
SK-MEL-5 melanoma = test system: SK-MEL-5 melanoma
SK-OV-3 ovarian = test system: SK-OV-3 ovarian
SNB-75 CNS = test system: SNB-75 CNS
RPMI-8226 leukemia = test system: RPMI-8226 leukemia
RXF 393 renal = test system: RXF 393 renal
NCI-H460 lung = test system: NCI-H460 lung
M14 melanoma = test system: M14 melanoma
OVCAR-5 ovarian = test system: OVCAR-5 ovarian
MOLT-4 leukemia = test system: MOLT-4 leukemia
A498 renal = test system: A498 renal
HT29 colon = test system: HT29 colon
DU-145 prostate = test system: DU-145 prostate
OVCAR-4 ovarian = test system: OVCAR-4 ovarian
HL-60(TB) leukemia = test system: HL-60(TB) leukemia
CAKI-1 renal = test system: CAKI-1 renal

In the case of `O=C(NC1CCC(Br)CC1)C1CCCC(S(=O)(=O)NC2CCCCC2)C1` (stereo unspecified), the GI50 (MALME-3M melanoma) is reported as 6.47 µM, the TGI (MALME-3M melanoma) is reported as 39.3 µM and the GI50 (SNB-19 CNS) is reported as 11.1 µM. It also gave a TGI (SNB-19 CNS) of 42.7 µM, a GI50 (LOX IMVI melanoma) of 10.7 µM and a TGI (LOX IMVI melanoma) of 40.4 µM. For the same molecule, the GI50 (CCRF-CEM leukemia) was 233 nM, the TGI (CCRF-CEM leukemia) was 26.3 µM and the GI50 (HOP-92 NSCLC) was 4.7 µM. For the same molecule, the TGI (HOP-92 NSCLC) was 23 µM, the GI50 (K-562 leukemia) was 7.52 µM and the TGI (K-562 leukemia) was 250 µM. For the same molecule, the GI50 (T-47D breast) was 6.05 µM, the TGI (T-47D breast) was 37 µM and the GI50 (TK-10 renal) was 15 µM. For the same molecule, the TGI (TK-10 renal) was 49.9 µM, the GI50 (SK-MEL-28 melanoma) was 9.22 µM and the TGI (SK-MEL-28 melanoma) was 36.8 µM. It also gave a GI50 (COLO 205 colon) of 14 µM, a TGI (COLO 205 colon) of 51.5 µM and a GI50 (A549 NSCLC) of 9.81 µM. It also gave a TGI (A549 NSCLC) of 44.8 µM, a GI50 (BT-549 breast) of 8.34 µM and a TGI (BT-549 breast) of 35.4 µM. It also gave a GI50 (HS 578T breast) of 16.8 µM, a TGI (HS 578T breast) of 87.2 µM and a GI50 (SR leukemia) of 18.8 µM. The TGI (SR leukemia) was 129 µM, the GI50 (IGROV1 ovarian) was 9.78 µM and the TGI (IGROV1 ovarian) was 46 µM. It also gave a GI50 (HCT-15 colon) of 11.5 µM, a TGI (HCT-15 colon) of 46.9 µM and a GI50 (OVCAR-3 ovarian) of 9.83 µM. For the same molecule, the TGI (OVCAR-3 ovarian) was 40 µM, the GI50 (SF-295 CNS) was 8.04 µM and the TGI (SF-295 CNS) was 28.4 µM. For the same molecule, the GI50 (NCI/ADR-RES ovarian) was 8.36 µM, the TGI (NCI/ADR-RES ovarian) was 37.7 µM and the GI50 (MCF7 breast) was 9.31 µM. For the same molecule, the TGI (MCF7 breast) was 63.8 µM, the GI50 (ACHN renal) was 9.9 µM and the TGI (ACHN renal) was 39.4 µM. For the same molecule, the GI50 (U251 CNS) was 10.9 µM, the TGI (U251 CNS) was 43 µM and the GI50 (EKVX NSCLC) was 7.81 µM. The TGI (EKVX NSCLC) was 32.9 µM, the GI50 (SF-539 CNS) was 13.5 µM and the TGI (SF-539 CNS) was 46.3 µM. The GI50 (HOP-62 NSCLC) was 24 µM, the TGI (HOP-62 NSCLC) was 59.8 µM and the GI50 (PC-3 prostate) was 8.47 µM. For the same molecule, the TGI (PC-3 prostate) was 37.1 µM, the GI50 (SN12C renal) was 9.29 µM and the TGI (SN12C renal) was 39.8 µM. The GI50 (SF-268 CNS) was 12.6 µM, the TGI (SF-268 CNS) was 56 µM and the GI50 (NCI-H226 lung) was 12 µM. It also gave a TGI (NCI-H226 lung) of 109 µM, a GI50 (HCC-2998 colon) of 13 µM and a TGI (HCC-2998 colon) of 47.3 µM. For the same molecule, the GI50 (NCI-H23 lung) was 7.88 µM, the TGI (NCI-H23 lung) was 35.3 µM and the GI50 (UO-31 renal) was 6.26 µM. The TGI (UO-31 renal) was 33.1 µM, the GI50 (UACC-62 melanoma) was 7.38 µM and the TGI (UACC-62 melanoma) was 35.3 µM. For the same molecule, the GI50 (HCT-116 colon) was 9.15 µM, the TGI (HCT-116 colon) was 38 µM and the GI50 (SW-620 colon) was 13.9 µM. For the same molecule, the TGI (SW-620 colon) was 53.7 µM, the GI50 (MDA-MB-231 breast) was 13.5 µM and the TGI (MDA-MB-231 breast) was 55.8 µM. The GI50 (MDA-MB-435) was 10.6 µM, the TGI (MDA-MB-435) was 42.3 µM and the GI50 (786-0 renal) was 19.3 µM. For the same molecule, the TGI (786-0 renal) was 55 µM, the GI50 (KM12 colon) was 13.3 µM and the TGI (KM12 colon) was 47.8 µM. The GI50 (NCI-H522 lung) was 8 µM, the TGI (NCI-H522 lung) was 38.1 µM and the GI50 (SK-MEL-2 melanoma) was 11.5 µM. For the same molecule, the TGI (SK-MEL-2 melanoma) was 46.4 µM, the GI50 (OVCAR-8 ovarian) was 12.8 µM and the TGI (OVCAR-8 ovarian) was 59 µM. For the same molecule, the GI50 (UACC-257 melanoma) was 9.32 µM, the TGI (UACC-257 melanoma) was 38.4 µM and the GI50 (SK-MEL-5 melanoma) was 4.96 µM. It also gave a TGI (SK-MEL-5 melanoma) of 11.6 µM, a GI50 (SK-OV-3 ovarian) of 14.1 µM and a TGI (SK-OV-3 ovarian) of 47.3 µM. It also gave a GI50 (SNB-75 CNS) of 17 µM, a TGI (SNB-75 CNS) of 69.5 µM and a GI50 (RPMI-8226 leukemia) of 9.79 µM. For the same molecule, the TGI (RPMI-8226 leukemia) was 58 µM, the GI50 (RXF 393 renal) was 11.8 µM and the TGI (RXF 393 renal) was 48.1 µM. It also gave a GI50 (NCI-H460 lung) of 11.4 µM, a TGI (NCI-H460 lung) of 48 µM and a GI50 (M14 melanoma) of 9.42 µM. The TGI (M14 melanoma) was 39.6 µM, the GI50 (OVCAR-5 ovarian) was 14.2 µM and the TGI (OVCAR-5 ovarian) was 48.8 µM. It also gave a GI50 (MOLT-4 leukemia) of 8.91 µM, a TGI (MOLT-4 leukemia) of 79.3 µM and a GI50 (A498 renal) of 3.7 µM. The TGI (A498 renal) was 21.7 µM, the GI50 (HT29 colon) was 17.7 µM and the TGI (HT29 colon) was 55 µM. For the same molecule, the GI50 (DU-145 prostate) was 16.1 µM, the TGI (DU-145 prostate) was 47.7 µM and the GI50 (OVCAR-4 ovarian) was 8.19 µM. The TGI (OVCAR-4 ovarian) was 44.1 µM, the GI50 (HL-60(TB) leukemia) was 8.6 µM and the TGI (HL-60(TB) leukemia) was 82.2 µM. It also gave a GI50 (CAKI-1 renal) of 10.2 µM and a TGI (CAKI-1 renal) of 42.5 µM.
